Measurements published in patent US20230381321A1, “CAMPTOTHECIN CONJUGATES” (priority 2022, published 2023).
pIC50: −log10 of the molar value. Where two headings read alike, the source gives them in different places.

Columns and labels:
Format in all cases: cell-based
[1] = test system: anaplastic large cell lymphoma cells (Karpas299); assay: In vitro potency (CellTiter-Glo, 96 h) on Karpas299; settings: Homo sapiens, KARPAS-299, 96 h, read-out: Karpas299 IC50
Description: (§1) In vitro potency was assessed on multiple cancer cell lines. All cell lines were authenticated by STR profiling at IDEXX Bioresearch and cultured for no more than 2 months after resuscitation. Cells cultured in log-phase growth were seeded for 24 hours in 96-well plates containing […] RPMI 1640 supplemented with 20% FBS. Serial dilutions of antibody-drug conjugates in cell culture media were prepared at 4x working concentrations, and 50 μL of each dilution was added to the 96-well plates. Following addition of test articles, cells were incubated with test articles for 4 days at […]. After 96 hours, growth inhibition was assessed by CellTiterGlo® (Promega, Madison, WI) and luminescence was measured on a plate reader.
(§2) Cell viability was determined by CellTiter-Glo staining after 96h exposure to ADC. ND=Not Determined. In the following tables, “Ex_” refers to a drug linker number. For example, “Ag4-Ex_4a” refers to a conjugate of an Ag4 antibody with drug linker 4a.

[2] = test system: melanoma cells (A2058); assay: In vitro potency (CellTiter-Glo, 96 h) on A2058; settings: Homo sapiens, A2058, 96 h, read-out: A2058 IC50
Description: as §1, §2

[3] = test system: non-small-cell lung cancer cells (Calu1); assay: In vitro potency (CellTiter-Glo, 96 h) on Calu1; settings: Homo sapiens, Calu-1, 96 h, read-out: Calu1 IC50
Description: as §1, §2

[4] = test system: B-lymphocyte cancer cells (SU-DHL4); assay: In vitro potency (CellTiter-Glo, 96 h) on SU-DHL4; settings: Homo sapiens, SU-DHL-4, 96 h, read-out: SU-DHL-4 IC50
Description: as §1, §2

[5] = test system: anaplastic large cell lymphoma cells (DELBVR); assay: In vitro potency (CellTiter-Glo, 96 h) on DELBVR; settings: 96 h, read-out: DELBVR IC50
Description: as §1, §2

[6] = test system: acute myeloid leukemia cells (MOLM-13); assay: In vitro potency (CellTiter-Glo, 96 h) on MOLM-13; settings: Homo sapiens, MOLM-13, 96 h, read-out: MOLM-13 IC50
Description: as §1, §2

[7] = In vitro potency (CellTiter-Glo, 96 h) on Ls174T; settings: Homo sapiens, LS174T, read-out: Ls174T IC50
Description: as §1, §2

[8] = test system: breast cancer cells (MDA-MB-231); assay: In vitro potency (CellTiter-Glo, 96 h) on MDA-MB-231; settings: Homo sapiens, MDA-MB-231, 96 h, read-out: MDAMB 231 IC50
Description: as §1, §2

[9] = test system: Hodgkin's lymphoma cells (L540cy); assay: In vitro potency (CellTiter-Glo, 96 h) on L540cy; settings: L540cy, 96 h, read-out: L540cy IC50
Description: as §1, §2

[10] = test system: anaplastic large cell lymphoma cells (DEL); assay: In vitro potency (CellTiter-Glo, 96 h) on DEL; settings: 96 h, read-out: DEL IC50
Description: as §1, §2

[11] = test system: renal carcinoma cells (786-O); assay: In vitro potency (CellTiter-Glo, 96 h) on 786-O; settings: Homo sapiens, 786-0, 96 h, read-out: 786-O IC50
Description: as §1, §2

[12] = test system: pancreatic cancer cells (BxPC3); assay: In vitro potency (CellTiter-Glo, 96 h) on BxPC3; settings: Homo sapiens, BXPC-3, 96 h, read-out: BxPC3 IC50
Description: as §1, §2

[13] = CPT free drugs, CellTiter-Glo after 96 h exposure

Compound | pIC50 [1, 13] | pIC50 [2, 13] | pIC50 [4, 13] | pIC50 [5, 13] | pIC50 [6, 13] | pIC50 [7, 13] | pIC50 [8, 13] | pIC50 [9, 13] | pIC50 [10, 13] | pIC50 [1] | pIC50 [4] | pIC50 [5] | pIC50 [6] | pIC50 ([7]; 96 h) | pIC50 [11] | pIC50 [8] | pIC50 [9] | pIC50 [10] | pIC50 [12] | further results
CC[C@@]1(O)C(=O)OCc2c1cc1n(c2=O)Cc2c-1nc1cc(F)c(C)c(-c3ccco3)c1c2CN [Compound 6o] | 8.10 | 8.40 | 8.40 | 8.52 | 7.85 | 8.05 | 7.46 | 8.30 | 8.70 |  |  |  |  |  |  |  |  |  |  | pIC50 [3, 13]: 7.59
CC[C@@]1(O)C(=O)OCc2c1cc1n(c2=O)Cc2c-1nc1cc3c(cc1c2CNC(=O)CO)CCO3 [Compound 15c, (S)-N-((12-ethyl-12-hydroxy-8,11-dioxo-2,3,6,9,11,12-hexahydro-8H-furo [3,2 g]pyrano[3′,4′:6,7]indolizino[1,2-b]quinolin-5-yl)methyl)-2-hydroxyacetamide] | 7.66 | 8.22 | 8.52 | 8.52 | 7.74 | < 6.00 | 7.16 | 8.00 | 9.00 |  |  |  |  |  |  |  |  |  |  | pIC50 [3, 13]: 6.74; pIC50 [11, 13]: 7.66
CC[C@@]1(O)C(=O)OCc2c1cc1n(c2=O)Cc2c-1nc1cc(F)c(C)c(-c3cccs3)c1c2CN [Compound 6n] | 7.62 | 7.80 | 7.89 | 8.15 | 7.52 | 7.33 | 7.15 | 7.77 | 8.22 |  |  |  |  |  |  |  |  |  |  | pIC50 [3, 13]: 7.25
CC[C@@]1(O)C(=O)OCc2c1cc1n(c2=O)Cc2c-1nc1cc(F)c(C)c(C#N)c1c2CN [Compound 16] |  |  |  |  |  |  |  |  |  | 8.15 | 8.52 | 9.00 | 7.52 | 8.22 | 8.10 | 7.42 | 8.30 | 9.00 |  | pIC50 [2]: 8.52; pIC50 [3]: 7.17
CC[C@@]1(O)C(=O)OCc2c1cc1n(c2=O)Cc2c-1nc1cc(F)c(C)c(-c3ccoc3)c1c2CN [Compound 6p] | 8.52 | 8.70 | 9.00 | 8.70 | 8.52 | 8.30 | 8.00 | 8.70 | 9.05 |  |  |  |  |  |  |  |  |  |  | pIC50 [3, 13]: 8.10
CC[C@@]1(O)C(=O)OCc2c1cc1n(c2=O)Cc2c-1nc1cc3c(cc1c2CNCCOC)OCO3 [Compound 7ag] |  |  |  |  |  |  |  |  |  | 9.00 | 9.10 | 9.52 | 8.70 | 8.52 | 9.05 | 8.05 | 9.05 | 9.52 |  | pIC50 [2]: 9.22; pIC50 [3]: 8.22
CC[C@@]1(O)C(=O)OCc2c1cc1n(c2=O)Cc2c-1nc1cc(F)c(C)c(-c3ccc(CO)s3)c1c2CN [Compound 6e] |  |  |  |  |  |  |  |  |  |  |  |  |  |  |  |  |  |  |  | pIC50 [3]: 6.81
CC[C@@]1(O)C(=O)OCc2c1cc1n(c2=O)Cc2c-1nc1cc(F)c(C)c(C3=CCSCC3)c1c2CN [Compound 6m] | 7.92 | 8.15 | 8.30 | 8.22 | 8.15 | 7.66 | 7.42 | 8.10 | 8.70 |  |  |  |  |  |  |  |  |  |  | pIC50 [3, 13]: 7.46
CC[C@@]1(O)C(=O)OCc2c1cc1n(c2=O)Cc2c-1nc1cc(F)c(C)c(Cl)c1c2CNC(C)=O [Compound 12a] |  |  |  |  |  |  |  |  |  | 9.00 | 9.40 | 9.70 | 9.00 | 8.15 | 9.00 | 8.70 | 9.40 | 9.70 | 8.70 | 
CC[C@@]1(O)C(=O)OCc2c1cc1n(c2=O)Cc2c-1nc1cc(F)c(C)c(Cl)c1c2CNC(=O)CN [Compound 13a] |  |  |  |  |  |  |  |  |  | 9.00 | 9.00 | 9.00 | 8.70 | 7.36 | 8.22 | 8.30 | 9.00 | 9.52 | 8.30 | 
CC[C@@]1(O)C(=O)OCc2c1cc1n(c2=O)Cc2c-1nc1cc3c(cc1c2CNC[C@H](O)CN1CCCCC1)OCO3 [Compound 7aa] |  |  |  |  |  |  |  |  |  | 7.20 | 7.72 | 7.72 | 7.16 | 6.73 | 6.88 | 6.64 | 7.29 | 7.77 | 7.18 | 
CC[C@@]1(O)C(=O)OCc2c1cc1n(c2=O)Cc2c-1nc1cc(F)c(SC)cc1c2CN [Compound 2at] | 7.42 | 7.70 | 7.64 | 8.10 | 6.58 | 7.52 | 7.68 | 8.40 | 7.96 |  |  |  |  |  |  |  |  |  |  | pIC50 [12, 13]: 7.08; pIC50 [11, 13]: 7.30
CC[C@@]1(O)C(=O)OCc2c1cc1n(c2=O)Cc2c-1nc1cc3c(cc1c2CN1CCN(CCN)CC1)OCO3 [Compound 8c] |  |  |  |  |  |  |  |  |  | 7.55 | 8.15 | 8.40 | 7.16 | 7.49 | 7.57 | 7.24 | 7.85 | 8.52 | 7.85 | 
C=C(C)c1c(C)c(F)cc2nc3c(c(CN)c12)Cn1c-3cc2c(c1=O)COC(=O)[C@]2(O)CC [Compound 2al] |  |  |  |  |  |  |  |  |  | 8.40 | 9.00 | 9.00 | 8.70 | 7.96 | 8.40 | 8.05 | 8.70 | 9.00 | 8.15 | 
CC[C@@]1(O)C(=O)OCc2c1cc1n(c2=O)Cc2c-1nc1cc3c(cc1c2CNC1CCOC1)OCO3 (some centres unmarked) [Compound 7ah] |  |  |  |  |  |  |  |  |  | 9.00 | 9.30 | 9.70 | 9.05 | 8.70 | 9.10 | 8.22 | 9.10 | 9.70 |  | pIC50 [2]: 9.30; pIC50 [3]: 8.00
C/C=C/c1c(C)c(F)cc2nc3c(c(CN)c12)Cn1c-3cc2c(c1=O)COC(=O)[C@]2(O)CC [Compound 2aj] | 8.70 |  | 9.00 | 9.52 | 9.00 | 8.30 | 8.30 | 9.00 | 9.52 |  |  |  |  |  |  |  |  |  |  | pIC50 [12, 13]: 8.52; pIC50 [11, 13]: 8.70
CC[C@@]1(O)C(=O)OCc2c1cc1n(c2=O)Cc2c-1nc1cc(Br)c(OC)c(F)c1c2CN [Compound 2ah] | 7.19 |  | 7.54 | 7.96 | 6.90 | 6.82 | 6.83 | 7.27 | 7.92 |  |  |  |  |  |  |  |  |  |  | pIC50 [12, 13]: 6.70; pIC50 [11, 13]: 6.97
CC[C@@]1(O)C(=O)OCc2c1cc1n(c2=O)Cc2c-1nc1cc3c(cc1c2CNCCCN1CCNCC1)OCO3 [Compound 8d] |  |  |  |  |  |  |  |  |  | 8.05 | 8.22 | 8.70 | 7.43 | 7.72 | 7.82 | 7.60 | 8.22 | 8.70 | 7.85 | 
